Experimental data from patent publication USRE48461E1, “Modulation of androgen receptor expression” (Ionis Pharmaceuticals, Inc., priority 2012, dated 2021).
Oligonucleotides are written 5' to 3', each unit as a sugar letter and its base; * is a phosphorothioate linkage, no mark a phosphodiester; rarer units and linkages stand in square brackets, end groups in braces. Plain capitals give the bases only. k = constrained ethyl (cEt); [5mC] = 5-methylcytosine; d = 2'-deoxy (DNA)

Columns and labels:
AR mRNA [1] = assay: Antisense inhibition of human AR in HuVEC cells, single concentration (electroporation, qRT-PCR RTS3559); type: cell-based
Outline: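 AR mRNA levels were measured with human primer-probe set RTS3559 and adjusted for total RNA (RIBOGREEN). Cells were HuVEC, with each antisense oligonucleotide delivered by electroporation at one concentration.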

AR mRNA [2] = assay: Dose-dependent antisense inhibition of human AR in HuVEC cells (electroporation, qRT-PCR RTS3559, IC50); type: cell-based; details: HuVEC
Outline: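 HuVEC cells dosed with antisense oligonucleotides by electroporation and treated approximately 16 hours. AR mRNA quantified by real-time qPCR with primer probe set RTS3559 and normalised to total RNA by RIBOGREEN; IC50 from dose-response.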

[3] = Table 32, electroporation, approximately 16 hours
[4] = Table 34, electroporation, approximately 16 hours
[5] = Table 29, electroporation, approximately 16 hours
[6] = Table 36, electroporation, approximately 16 hours
[7] = Table 30, electroporation, approximately 16 hours
[8] = Table 20, 500 nM oligonucleotide, electroporation, approximately 24 hours, relative to untreated control
[9] = Table 33, electroporation, approximately 16 hours

583802 (antisense k[5mC]*kT*k[5mC]*dG*d[5mC]*dT*d[5mC]*dT*d[5mC]*d[5mC]*d[5mC]*dG*d[5mC]*kT*kG*k[5mC]) [compound 583802]
% inhibition (AR mRNA [1]; Table 19, 500 nM oligonucleotide, electroporation, approximately 24 hours, relative to untreated control): 37% | percent inhibition of AR, 46.9 nM (AR mRNA [2]; [3]): 17% | percent inhibition of AR, 187.5 nM (AR mRNA [2]; [3]): 25% | percent inhibition of AR, 750.0 nM (AR mRNA [2]; [3]): 47% | percent inhibition of AR, 3000.0 nM (AR mRNA [2]; [3]): 60% | IC50 (AR mRNA [2]; [3]): 1070 nM

584069 (k[5mC]*kA*kG*dA*dG*dT*d[5mC]*dA*dT*d[5mC]*d[5mC]*d[5mC]*dT*kG*k[5mC]*kT; antisense) [compound 584069]
% inhibition (AR mRNA [1]; Table 23, 500 nM oligonucleotide, electroporation, approximately 24 hours, relative to untreated control): 36% | percent inhibition of AR, 46.9 nM (AR mRNA [2]; [4]): 18% | percent inhibition of AR, 187.5 nM (AR mRNA [2]; [4]): 40% | percent inhibition of AR, 750.0 nM (AR mRNA [2]; [4]): 63% | percent inhibition of AR, 3000.0 nM (AR mRNA [2]; [4]): 82% | IC50 (AR mRNA [2]; [4]): 300 nM

583556 (antisense kA*kA*k[5mC]*dT*dT*d[5mC]*dA*d[5mC]*d[5mC]*dG*dA*dA*dG*kA*kG*kG) [compound 583556]
% inhibition (AR mRNA [1]; 500 nM ASO, ~24 h, Table 16): 43% | percent inhibition of AR, 46.9 nM (AR mRNA [2]; [5]): 19% | percent inhibition of AR, 187.5 nM (AR mRNA [2]; [5]): 47% | percent inhibition of AR, 750.0 nM (AR mRNA [2]; [5]): 68% | percent inhibition of AR, 3000.0 nM (AR mRNA [2]; [5]): 66% | IC50 (AR mRNA [2]; [5]): 340 nM

584233 (kG*kG*kA*dT*dT*d[5mC]*dT*d[5mC]*dT*dA*d[5mC]*dA*d[5mC]*kA*k[5mC]*kA; antisense) [compound 584233]
% inhibition (AR mRNA [1]; Table 25, 1,000 nM oligonucleotide, electroporation, approximately 24 hours, relative to untreated control): 62% | percent inhibition of AR, 46.9 nM (AR mRNA [2]; [6]): 0% | percent inhibition of AR, 187.5 nM (AR mRNA [2]; [6]): 30% | percent inhibition of AR, 750.0 nM (AR mRNA [2]; [6]): 66% | percent inhibition of AR, 3000.0 nM (AR mRNA [2]; [6]): 86% | IC50 (AR mRNA [2]; [6]): 390 nM

583736 (antisense kT*kG*kG*dA*dT*d[5mC]*dA*d[5mC]*dT*dT*d[5mC]*dG*d[5mC]*kG*k[5mC]*kA) [compound 583736]
% inhibition (AR mRNA [1]; 500 nM ASO, ~24 h, Table 18): 47% | percent inhibition of AR, 46.9 nM (AR mRNA [2]; [7]): 21% | percent inhibition of AR, 187.5 nM (AR mRNA [2]; [7]): 38% | percent inhibition of AR, 750.0 nM (AR mRNA [2]; [7]): 60% | percent inhibition of AR, 3000.0 nM (AR mRNA [2]; [7]): 63% | IC50 (AR mRNA [2]; [7]): 510 nM

584495 (kA*kT*kG*dG*dT*dT*dG*dT*d[5mC]*d[5mC]*dT*dG*dT*kA*k[5mC]*kA; antisense) [compound 584495]
% inhibition (AR mRNA [1]; Table 27, 1,000 nM oligonucleotide, electroporation, approximately 24 hours, relative to untreated control): 58% | % inhibition (AR mRNA [1]; Table 28, 1,000 nM oligonucleotide, electroporation, approximately 24 hours, relative to untreated control): 53% | percent inhibition of AR, 46.9 nM (AR mRNA [2]; [6]): 0% | percent inhibition of AR, 187.5 nM (AR mRNA [2]; [6]): 14% | percent inhibition of AR, 750.0 nM (AR mRNA [2]; [6]): 55% | percent inhibition of AR, 3000.0 nM (AR mRNA [2]; [6]): 74% | IC50 (AR mRNA [2]; [6]): 650 nM

583833 (kT*kG*kT*dT*d[5mC]*d[5mC]*d[5mC]*d[5mC]*dT*dG*dG*dA*d[5mC]*kT*k[5mC]*kA; antisense) [compound 583833]
% inhibition (AR mRNA [1]; [8]): 37% | percent inhibition of AR, 46.9 nM (AR mRNA [2]; [9]): 26% | percent inhibition of AR, 187.5 nM (AR mRNA [2]; [9]): 43% | percent inhibition of AR, 750.0 nM (AR mRNA [2]; [9]): 70% | percent inhibition of AR, 3000.0 nM (AR mRNA [2]; [9]): 74% | IC50 (AR mRNA [2]; [9]): 260 nM

549371 (kG*kT*kT*dG*dT*dA*dG*dT*dA*dG*dT*d[5mC]*dG*k[5mC]*kG*kA; antisense) [compound 549371]
% inhibition (AR mRNA [1]; 500 nM ASO, electroporation, ~24 h, Table 1): 93% | percent inhibition of AR (AR mRNA [2]; 55.6 nM, ~16 h, Table 3): 30% | percent inhibition of AR (AR mRNA [2]; 166.7 nM, ~16 h, Table 3): 52% | percent inhibition of AR (AR mRNA [2]; 500.0 nM, ~16 h, Table 3): 83% | percent inhibition of AR (AR mRNA [2]; 1500.0 nM, ~16 h, Table 3): 88% | IC50 (AR mRNA [2]; ~16 h, Table 3): 148 nM

583835 (kG*kA*kA*dG*d[5mC]*dT*dG*dT*dT*d[5mC]*d[5mC]*d[5mC]*d[5mC]*kT*kG*kG; antisense) [compound 583835]
% inhibition (AR mRNA [1]; [8]): 44% | percent inhibition of AR, 46.9 nM (AR mRNA [2]; [3]): 20% | percent inhibition of AR, 187.5 nM (AR mRNA [2]; [3]): 55% | percent inhibition of AR, 750.0 nM (AR mRNA [2]; [3]): 74% | percent inhibition of AR, 3000.0 nM (AR mRNA [2]; [3]): 88% | IC50 (AR mRNA [2]; [3]): 190 nM
